Experimental findings from patent US20160270687A1, “System and Method for Quantitative Magnetic Resonance (MR) Analysis Using T1 Mapping” (priority 2013, published 2016) are described below.

Peptide text beside a SMILES is read from it. * marks the point of attachment. X1 = O=C(O)CN1CCN(CC(=O)O)CCN(CC(=O)NCCCn2cc(COCC(COCc3cn(CCCNC(=O)CN4CCN(CC(=O)O)CCN(CC(=O)O)CCN(CC(=O)O)CC4)nn3)(COCc3cn(CCCNC(=O)CN4CCN(CC(=O)O)CCN(CC(=O)O)CCN(CC(=O)O)CC4)nn3)NC(=O)CCN3C(=O)CC(*)C3=O)nn2)CCN(CC(=O)O)CC1

In one series the test system is LN-229 flank tumors. In words: Dynamic quantitative T1 mapping and Gd concentration maps of flank tumors. The method, then: Representative bright-field images of GFP-positive LN-229 flank tumors for animals where 0.2 mmol Gd/kg of Optimark™, scrambled-Tris-(Gd-DOTA)3, or SBK2-Tris-(Gd-DOTA)3 was administered are presented in row 1210 in columns 1202, 1204, and 1206 respectively. GFP fluorescence images of LN-229 tumor cells for each of the three contrast agents are presented in row 1220 in columns 1202, 1204, and 1206 respectively. T2 high resolution images are presented in row 1230 in columns 1202, 1204, and 1206 respectively. T2 low-resolution images with a region of interest (ROI) illustrated by a dashed line are presented in row 1240 in columns 1202, 1204, and 1206 respectively show the tumor area used for T1 map quantification. Axial T1-weighted images of LN-229 flank tumor at baseline or pre-agent (e.g., before injection of contrast agents) are shown in row 1250. Axial T1-weighted images of LN-229 flank tumor at time of maximum contrast (e.g., 15 minutes) following intravenous injection are shown in row 1260.
High-resolution T2-weighted images were obtained for each mouse using a RARE (Rapid Acquisition with Relaxation Enhancement) acquisition (TR/TE=5000/40 ms, 20 slices, resolution=0.117×0.117×0.5 mm) to select the imaging slice for the dynamic T1 mapping acquisition. The dynamic T1 data were then acquired using a snapshot GRE (Gradient Recalled Echo) acquisition with inversion recovery preparation (10 inversion times [263, 775, 1287, 1799, 2311, 2823, 3335, 3847, 4359, and 4871 ms], GRE imaging readout TR/TE=4.0 ms/1.3 ms, flip angle=10 degrees, resolution=0.234×0.234×1 mm, Field of View (FOV)=30×30 mm, and 10 signal averages). The total acquisition time for each T1 mapping scan was 2.5 min. After five baseline/pre-agent T1 mapping scans, Optimark™, the targeted SBK2-Tris-(Gd-DOTA)3 agent, or the non-targeted scrambled-Tris-(Gd-DOTA)3 control was injected at a dose of 0.2 mmol of Gd/kg followed by a 50 μL flush of saline. T1 maps were then consecutively acquired every 2.5 min over 62.5 min.
The MRI data were imported into MATLAB enabling estimation of both pixel-wise T1 relaxation time maps as well as mean intra-tumoral T1 changes using an ROI analysis. The T1 maps were obtained from the T1 mapping acquisition mono-exponential models. To compare the multiple imaging agents, the pre and post-agent T1 maps were then used to calculate maps of percent change in T1, which is directly related to the concentration of each agent within the tumor. To calculate Gd concentrations, T1 relaxivity constants determined at 9.4 T were used along with T1 map values.
As the T1 maps and T2-weighted images were co-registered, the ROI analysis was performed by outlining the ROI on the T2-weighted images. The same ROI was then applied to all of the T1 maps and the average value in the ROI was calculated as a measure of tumor uptake of each imaging agent. Plots of normalized T1 values in the tumor were calculated by dividing the post-agent injection T1 maps by an average of the 5 baseline (pre-agent injection) tumor T1 values. This normalization was performed to limit the effects of variation in the pre-contrast tumor T1 values on the comparison of the molecular imaging agents.
As an imaging marker for contrast agent retention, a slope analysis was performed on the normalized T1 values. Slopes were calculated for Optimark™, scrambled-Tris-(Gd-DOTA)3, and SBK2-Tris-(Gd-DOTA)3 by using all of the mean tumor T1 values from 15 minutes to 60 minutes following agent administration. For each pair of contrast agents, normalized T1 map values at each time point, along with the slopes of post-agent T1 curves were evaluated for statistical significance using a two-tailed Student's t-test, assuming statistical significance at p<0.05.

Another series relates to LN-229 flank tumor. It counts as in vivo, mice. On the procedure: FIG. 8 illustrates that the SBK2 based specific molecular imaging agent improves the enhancement of LN-229 tumors. FIG. 8 illustrates representative T1-weighted axial 2D gradient images of LN-229 flank tumor-bearing mice before (pre-injection) (column 840) and at 1 minute (column 842), 5 minutes (column 844), 10 minutes (column 846), 20 minutes (column 848), and 30 minutes (column 850) after the intravenous injection of ProHance™ (row 810), scrambled Tris-(Gd-DOTA)3 (row 820), or SBK2-Tris-(Gd-DOTA)3 (row 830) at 0.1 mmol Gd/kg. FIG. 8 also illustrates axial 2D gradient images heat map overlays on the tumor to indicate contrast intensity. FIG. 8 illustrates heat maps with overlays for T1-weighted axial 2D gradient images of LN-229 flank tumor-bearing mice before (pre-injection) (column 882) and at 1 minute (column 884), 5 minutes (column 886), 10 minutes (column 888), 20 minutes (column 890), and 30 minutes (column 892) after the intravenous injection of ProHance™ (row 860), scrambled Tris-(Gd-DOTA)3 (row 870), or SBK2-Tris-(Gd-DOTA)3 (row 880) at 0.1 mmol Gd/kg.
The SBK2 based specific molecular imaging agent was developed as a diagnostic imaging tool. To function as an imaging tool, SBK2 was conjugated to a Gd chelate [SBK2-Tris-(Gd-DOTA)3] to generate an MR-detectable molecular imaging agent. The ability of SBK2-Tris-(Gd-DOTA)3 to function as a contrast agent was compared to a macrocyclic gadolinium chelate (Gadoteridol, ProHance™) and to a scrambled molecular imaging agent linked to gadolinium [scrambled Tris-(Gd-DOTA)3]. SBK2-Tris-(Gd-DOTA)3 labeled human glioma tumors with a high level of contrast persisting for two hours. […] SBK2-Tris-(Gd-DOTA)3 labeling of PTPμ extracellular fragment retained in the tumor microenvironment is a more specific MR molecular imaging agent than a nonspecific gadolinium chelate.
FIG. 9 illustrates quantitation of LN-229 flank tumor enhancement following administration of control or targeted contrast agents in xenograft mice. Graphs 900 and 910 illustrate dose-response plots of LN-229 flank tumor contrast to noise ratio (CNR) with ProHance™ or SBK2-Tris-(Gd-DOTA)3 respectively administered at 0.03 mmol Gd/kg or 0.1 mmol Gd/kg.
Data is shown as means±SEM. […] At 60 to 120 minutes post-injection, the ProHance™ cleared more rapidly than SBK2-Tris-(Gd-DOTA)3 resulting in greater than 110% increase in SBK2-Tris-(Gd-DOTA)3 tumor CNR compared with ProHance™ (P<0.001). The SBK2-Tris-(Gd-DOTA)3 tumor CNR was approximately 53% greater than the scrambled Tris-(Gd-DOTA)3 tumor CNR at 60 to 90 minutes (P<0.001).

The subject of series [1] is orthotopic Gli36Δ5 glioma tumors. In words: Quantitative T1 mapping of orthotopic brain tumors with Optimark. Particulars: for time of peak contrast following the injection: 0.1 mmol/kg.
Source text: This is because T1 mapping is a quantitative MR imaging method that yields the absolute T1 relaxation values as opposed to the relative signal intensity values in T1-weighted images.
High-resolution T2-weighted MR images were acquired to localize the tumor and enable identification of the largest cross-section of tumor on MRI.
Graph 2300 illustrates mean Gd concentrations in the tumor before and after intravenous administration of 0.1 (line 2310) or 0.2 mmol/kg (line 2320) Optimark™ in cohorts of nu/nu athymic mice bearing orthotopic glioma tumors. Data is plotted as means+/−standard error. The mean tumor Gd concentration was measured at baseline or pre-agent and after contrast agent injection was measured every 2.5 minutes for 30 minutes.

Turning to “C-GFTQPETGTDNDLWSVDNEK [scrambled, reference compound]”, the “time after peak within which contrast agent concentration begins to diminish” value (“time … to diminish” below) with LN-229 flank tumors (mouse, in vivo) is on record as “thirty”.
Regarding C-GEGDDFNWEQVNTLTKPTSD [SBK2], the “time contrast agent concentration remains at peak levels” value with LN-229 flank tumors (mouse, in vivo) is on record as “at least sixty”. In the series with LN-229 flank tumor (mouse, in vivo), the “retention time of the agent in the sample / glioblastoma” value is “up to two”.
For the molecule `COCCNC(=O)CN(CCN(CCN(CC(=O)[O-])CC(=O)NCCOC)CC(=O)[O-])CC(=O)[O-].[Gd+3]` [Optimark™, gadoversetamide], the “time … to diminish” value in the series on LN-229 flank tumors (mouse, in vivo) was “thirty”. Also, the “time of peak enhancement in the tumors (mean normalized T1)” value in series [1] (0.1 mmol/kg dose) and in series [1] (0.2 mmol/kg dose) was 5 min in each case. Further, in series [1] (0.1 mmol/kg dose, 5 minutes), the “change in normalized T1 values” is “modest decrease”. In addition, in series [1] (0.1 mmol/kg dose, 30 minutes), the “distinction between T1 value of normal brain and tumor” value was “no distinction”. Moreover, the “time of peak contrast following the injection” value in series [1] (T1-weighted FLASH images) was “five”; in series [1] (snapshot GRE images, T1 maps, Gd concentration maps) it was “two and a half”. Further, the “change in normalized T1 values compared to 0.1 mmol/kg” value in series [1] (0.2 mmol/kg dose, 5 minutes) was “larger decrease”. For the same molecule, in series [1] (0.2 mmol/kg dose, 30 minutes), the “distinction between normalized T1 values of normal brain and tumor” value is “weak distinction”.
For the molecule `CC(O)CN1CCN(CC(=O)[O-])CCN(CC(=O)[O-])CCN(CC(=O)[O-])CC1.[Gd+3]` (centres unmarked) [Prohance™, gadoteridol, reference compound], the “time … to diminish” value in the series with LN-229 flank tumors (mouse, in vivo) is listed as “thirty”.
Take `CC(C)C[C@H](NC(=O)[C@@H](NC(=O)[C@H](CC(N)=O)NC(=O)[C@@H](NC(=O)[C@H](CCC(N)=O)NC(=O)[C@H](CCC(=O)O)NC(=O)[C@H](Cc1c[nH]c2ccccc12)NC(=O)[C@H](CC(N)=O)NC(=O)[C@H](Cc1ccccc1)NC(=O)[C@H](CC(=O)O)NC(=O)[C@H](CC(=O)O)NC(=O)CNC(=O)[C@H](CCC(=O)O)NC(=O)CNC(=O)[C@@H](N)CSC1CC(=O)N(CCC(=O)NC(COCc2cn(CCCNC(=O)CN3CCN(CC(=O)O)CCN(CC(=O)O)CCN(CC(=O)O)CC3)nn2)(COCc2cn(CCCNC(=O)CN3CCN(CC(=O)O)CCN(CC(=O)O)CCN(CC(=O)O)CC3)nn2)COCc2cn(CCCNC(=O)CN3CCN(CC(=O)O)CCN(CC(=O)O)CCN(CC(=O)O)CC3)nn2)C1=O)C(C)C)[C@@H](C)O)C(=O)N[C@H](C(=O)N[C@@H](CCCCN)C(=O)N1CCC[C@H]1C(=O)N[C@H](C(=O)N[C@@H](CO)C(=O)N[C@@H](CC(=O)O)C(=O)O)[C@@H](C)O)[C@@H](C)O` (some centres unmarked) [SBK2-Tris-(Gd-DOTA)3] (H-C(X1)GEGDDFNWEQVNTLTKPTSD-OH; N-terminus and C-terminus assumed): the “Gd concentration in tumor at 60 minutes” value in the series on LN-229 flank tumors (0.2 mmol Gd/kg) was “remains at near peak levels”. Further, in the series on LN-229 flank tumors (0.2 mmol Gd/kg, measured every 2.5 minutes for 62.5 minutes), the “retention judged from slope of mean tumor normalized T1 values” is “highest retention”. The “distribution of T1 changes in the tumor” value in the series with LN-229 flank tumors (30 minutes and 60 minutes, larger tumors) is reported as “uniformly distributed throughout the tumor”. Moreover, in the series on LN-229 flank tumors (compared with non-specific molecular imaging agents), the “time the agent remains in the tumor” value amounted to 1 h. Also, the “non-specific uptake compared with scrambled-Tris-(Gd-DOTA)3” value in the series on LN-229 flank tumors (mouse, in vivo) is given as “nearly identical non-specific uptake”. The “concentration accumulated in tumor relative to scrambled-Tris-(Gd-DOTA)3” value with LN-229 flank tumors (tumors containing the PTPμ fragment) is reported as “about twice”. The “increase in tumor CNR over scrambled Tris-(Gd-DOTA)3 or ProHance” value with LN-229 flank tumor (15 to 45 minutes post-injection, 0.1 mmol Gd/kg intravenous, P<0.001) is around 55%. Also, the “tumor CNR greater than the scrambled Tris-(Gd-DOTA)3 tumor CNR” value in the series with LN-229 flank tumor (60 to 90 minutes, 0.1 mmol Gd/kg intravenous, P<0.001) is listed as “approximately 53%”. The “increase in tumor CNR compared with ProHance” value in the series on LN-229 flank tumor (60 to 120 minutes post-injection, 0.1 mmol Gd/kg intravenous, P<0.001) is given as “greater than 110%”. In addition, the “contrast enhancement compared with ProHance alone” value in the series on LN-229 flank tumor (mouse, in vivo) is on record as “significantly higher”.
